Columns and labels:
[1] = system: rat hippocampal brain slices; experiment: Reversal of mGluR2-agonism (LY-354740-depressed fEPSP) in hippocampal brain slices; type: cell-based
From the text: 7) Reversal of mGluR2-Agonism in Hippocampal Brain Slices Introduction
Electrophysiology recordings of field excitatory postsynaptic potentials (fEPSPs) in acute hippocampal brain slices represent a model for testing synaptic transmission and plasticity. The effect of Co. No. 1 on synaptic transmission and plasticity in dentate gyms synapses was investigated using this model.
Recordings of fEPSPs were made from hippocampal brain slices using a multi-electrode array (MEA) biochip, and 3-dimensional-(3D) tip electrodes, according to a standard protocol. These recordings were used to monitor glutamate-mediated synaptic transmission (FIG. 4).

human mGlu2 receptor = biological target: T1, human mGlu2 receptor (Homo sapiens, UniProt Q14416); experiment: [35S]GTPγS binding assay (mGluR2 negative allosteric modulation); type: biochemical; settings: for IC50: membranes from CHO cells transfected with human mGlu2 receptor, glutamate 60 μM, pIC50 = −log IC50 (M), read-out: GTPγS - hmGluR2 anGT pIC50 (converted); for Emax: relative maximal effect: maximal % inhibition relative to the control glutamate response, read-out: GTPγS - hmGluR2 anGT Emax
T1 construct: expressed in transfected cells; host or cells: CHO cells (membrane preparation)
How it was run: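 Negative allosteric modulation read as [35S]GTPγS (0.1 nM) incorporation over 30 min at 30 °C, expressed as % of the response to an EC80-equivalent glutamate concentration. Assay used 7 μg human mGlu2 CHO membrane protein in HEPES pH 7.4 buffer with NaCl, MgCl2, GDP and saponin; bound label collected by filtration.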

Male Wiga Wistar rats = experiment: Reversal of LY-404039-induced decrease of palpebral opening in apomorphine-challenged rats; type: in vivo; settings: Rattus norvegicus, Route PO; reversal of LY-404039-induced decrease of palpebral opening (cumulative score >26) in apomorphine challenged rats
Procedure: 6) Reversal of LY-404039-Induced Decrease of Palpebral Opening in Apomorphine-Challenged Rats.
Male Wiga Wistar rats (Crl:WI; Charles River Germany; 220±40 g) were housed under standard laboratory conditions (21±2° C.; 50-65% relative humidity; light-dark cycle set at 12 h; lights on at 6.00 h) and fasted overnight prior to the start of the experiments (tap water remained available ad libitum). During the test period, they were housed in individual cages. The local Ethical Committee approved all studies in compliance with the Declaration of Helsinki. Palpebral opening was scored every 5 min over the first hour after injection of apomorphine (1.0 mg/kg, i.v.) in animals either pretreated or not pretreated with LY-404039 (2.5 mg/kg, s.c.) at 1 h prior to the apomorphine injection. The animals were also pretreated with test compound or solvent at a predefined interval before apomorphine challenge. The score system was: (5) exophthalmos, (4) wide open, (3) open for three-quarters, (2) half open, (1) open for one-quarter, (0) closed. The scores for palpebral opening were cumulated over the 60-min observation period. A cumulative palpebral opening score >26 was selected for drug-induced reversal of the LY-404039-induced decrease of palpebral opening (occurrence in 3.2% of control animals pretreated with LY-404039 (n=154) versus in 99.5% of control rats not pretreated with LY-404039 (n=6335)).
In animals receiving apomorphine alone the median palpebral opening is 43 whereas in animals receiving apomorphine and LY-404039, the median palpebral opening is 17.

Wiga rats = experiment: Reserpine interaction test in rats; type: in vivo, rat; settings: Rattus norvegicus, po; Time 60; reserpine 10 mg/kg SC; Wiga rats; read-out: ED50, reversal of reserpine-induced ptosis
Procedure: 4) Reserpine Interaction Test in Rats
It was investigated to what extent the mydriatic action of test compounds was sufficient to counteract the miosis induced by the monoamines-depleting agent reserpine (10 mg/kg; SC) in Wiga rats.
The effects are illustrated in FIG. 3. […] The reference mGlu2 NAMs RO-4995819 (40 mg/kg, p.o.), RO-4491533 (40 mg/kg, p.o.; 10 mg/kg, s.c.) and [CAS 579473-69-1]

rats = experiment: Reversal of the effect of the mGluR2 PAM JNJ-42153605 on scopolamine-induced hyperlocomotion; type: in vivo; settings: Rattus norvegicus, 1 h, Route PO, test compound 60 min before recording, criterion total distance >1500 cm
Procedure: 2) Reversal of the Effect of the mGluR2 PAM JNJ-42153605 on Scopolamine-Induced Hyperlocomotion Apparatus
Motor activity was measured in microprocessor-based motor activity arenas (closed gray PVC cylinders with a height of 39 cm and a diameter of 31 cm). Each arena was placed on an infrared LED (8×8 LEDs) lit box (white PVC squared box; 40×40 cm^2; height 12.5 cm. An infrared-sensitive tube camera and a white light source were mounted to the ceiling above the observation chamber to track the animal. The total distance traveled (cm) was recorded and analyzed using the Noldus Ethovision XT Video Tracking System (Version 7.0.418; Noldus, Wageningen, The Netherlands). The intensity of the light within the activity cages (measured in the centre at the level of the floor) ranged between 4 and 8 LUX.
The rats were pretreated with test compound or vehicle at 60 min before the start of the activity recordings and placed into individual cages. The rats were challenged with JNJ-42153605 (3-(cyclopropylmethyl)-7-(4-phenylpiperidin-1-yl)-8-(trifluoromethyl)[1,2,4]triazolo[4,3-a]pyridine; WO2010/130424; Cid et al. J. Med. Chem. 2012, 55, 8770-8789) (20 mg/kg, i.v.) 30 min before the start of the activity recording combined with scopolamine (0.16 mg/kg, i.v.) just before the start of the activity measurements Immediately after the injection of scopolamine, the rats were placed into the activity monitors and total distance travelled over the first 30 min was measured.
Animals receiving the combination of JNJ-42153605 and scopolamine (n=433) almost always travelled a distance of less than 1500 cm (<1500 cm) (only 2.5% of the control rats travelled a distance of more than 1500 cm (>1500 cm)). On the other hand, animals challenged with scopolamine alone (n=215) always travelled a total distance of more than 1500 cm (>1500 cm) and almost always (in 95.8% of the rats) a distance of more than 4400 cm (>4400 cm). […] For reversal of the inhibitory effect of JNJ-42153605 on the scopolamine-induced hyperlocomotion, two all-or-none criteria were adopted: (1) reversal: total distance >1500 cm; (2) normalization: total distance >4400 cm.

T1 sequence (Q14416 19-872): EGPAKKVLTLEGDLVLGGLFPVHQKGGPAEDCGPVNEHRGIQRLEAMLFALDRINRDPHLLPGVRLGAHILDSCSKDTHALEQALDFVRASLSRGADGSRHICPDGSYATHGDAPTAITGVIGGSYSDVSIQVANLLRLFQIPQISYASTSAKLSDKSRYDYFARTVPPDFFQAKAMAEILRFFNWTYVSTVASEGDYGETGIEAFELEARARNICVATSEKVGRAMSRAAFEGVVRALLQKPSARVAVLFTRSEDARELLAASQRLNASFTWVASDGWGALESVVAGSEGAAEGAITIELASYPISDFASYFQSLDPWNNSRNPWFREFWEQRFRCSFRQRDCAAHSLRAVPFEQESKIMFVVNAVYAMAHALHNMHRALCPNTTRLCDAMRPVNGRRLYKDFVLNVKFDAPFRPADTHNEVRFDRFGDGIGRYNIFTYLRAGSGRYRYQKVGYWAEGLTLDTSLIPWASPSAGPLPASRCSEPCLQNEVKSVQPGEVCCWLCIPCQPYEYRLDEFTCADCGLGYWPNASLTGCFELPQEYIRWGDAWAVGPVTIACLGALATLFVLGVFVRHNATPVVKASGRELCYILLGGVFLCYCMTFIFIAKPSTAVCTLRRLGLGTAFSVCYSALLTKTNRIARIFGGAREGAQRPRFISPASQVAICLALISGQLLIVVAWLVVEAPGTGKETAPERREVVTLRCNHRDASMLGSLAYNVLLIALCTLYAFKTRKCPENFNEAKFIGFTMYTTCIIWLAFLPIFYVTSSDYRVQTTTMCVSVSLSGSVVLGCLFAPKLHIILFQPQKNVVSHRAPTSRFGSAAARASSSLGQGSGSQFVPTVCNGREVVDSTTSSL

IC50 (human mGlu2 receptor) [M] | Emax (human mGlu2 receptor) [%] | melting point [°C] | Structure (SMILES) | paired-pulse ratio (PPR) ([1]; 1 μM LY-354740) | depression of fEPSP ([1]; 1 μM, within 15 min of application, dentate gyrus) [%] | ED50 (Male Wiga Wistar rats) [mg/kg] | ED50 (Wiga rats) [mg/kg] | ED50 (rats) [mg/kg]
5.75e-07 | 99 |  | CCOc1cc(N2CCn3ncc(-c4ccnc(C)c4)c3C2=O)ccc1C(F)(F)F [compound 33] |  |  | > 2.5 | 0.5 | 
5.75e-09 | 106 |  | CNc1cc(-c2cnn3c2C(=O)N(c2ccc(C(F)(F)F)cc2)C[C@@H]3C)ccn1 [compound 147, (7S)-7-Methyl-3-[2-(methylamino)-4-pyridyl]-5-[4-(trifluoromethyl)phenyl]-6,7-dihydropyrazolo[1,5-a]pyrazin-4-one] |  |  | 1.26 |  | 0.5
6.31e-09 | 105 | 124.6 | CCc1cc(-c2cnn3c2C(=O)N(c2ccc(C(F)(F)F)cc2)C[C@@H]3C)ccn1 [compound 46, (7S)-3-(2-Ethyl-4-pyridyl)-7-methyl-5-[4-(trifluoromethyl)phenyl]-6,7-dihydropyrazolo[1,5-a]pyrazin-4-one] |  |  | 0.32 |  | ≥ 2.5
6.17e-09 | 105 | > 300 | CCNc1cc(-c2cnn3c2C(=O)N(c2ccc(C(F)(F)F)cc2)C[C@@H]3C)ccn1 [compound 44, (7S)-3-[2-(Ethylamino)-4-pyridyl]-7-methyl-5-[4-(trifluoromethyl)phenyl]-6,7-dihydropyrazolo[1,5-a]pyrazin-4-one] |  |  | 0.5 |  | ≥ 2.5
5.13e-07 | 104 | 231.5 | Cc1cc(-c2cnn3c2C(=O)N(c2ccc(C(F)(F)F)cc2)C[C@@H]3C)cc[n+]1[O-] [compound 140, (7S)-7-Methyl-3-(2-methyl-1-oxido-pyridin-1-ium-4-yl)-5-[4-(trifluoromethyl)phenyl]-6,7-dihydropyrazolo[1,5-a]pyrazin-4-one] |  |  | 1.99 |  | 

Continued, compound first:

Structure (SMILES) | IC50 (human mGlu2 receptor) [M] | Emax (human mGlu2 receptor) [%] | melting point [°C] | paired-pulse ratio (PPR) ([1]; 1 μM LY-354740) | depression of fEPSP ([1]; 1 μM, within 15 min of application, dentate gyrus) [%] | ED50 (Male Wiga Wistar rats) [mg/kg] | ED50 (Wiga rats) [mg/kg] | ED50 (rats) [mg/kg]
N[C@@]1(C(=O)O)CC[C@H]2[C@H](C(=O)O)[C@H]21 [LY-354740, reference compound] |  |  |  | increase of the paired-pulse ratio | 50 |  |  | 
Cc1cc(-c2cnn3c2C(=O)N(c2ccc(C(F)(F)F)c(C)c2)C[C@@H]3C)ccn1 [compound 5] |  |  |  |  |  | > 10 |  | ≥ 2.5
CCOc1cc(N2C[C@@H](C)n3ncc(-c4ccnc(C)c4)c3C2=O)ccc1C(F)(F)F [compound 31] | 4.37e-07 | 107 |  |  |  | ≥ 10 | 0.79 | 
C[C@H]1CN(c2ccc(C(F)(F)F)cc2)C(=O)c2c(-c3ccncc3)cnn21 [compound 2, (7S)-7-Methyl-3-pyridin-4-yl-5-[4-(trifluoromethyl)phenyl]-6,7-dihydropyrazolo [1,5-a]pyrazin-4(5H)-one] |  |  |  |  |  | 0.5 | 0.32 | 1.26
Cc1cc(-c2cnn3c2C(=O)N(c2ccc(Cl)cc2)C[C@@H]3C)ccn1 [compound 15] | 2.63e-08 | 103 |  |  |  | 11.2 |  | 1.26
CCOc1cc(N2C[C@H](C)n3ncc(-c4ccnc(C)c4)c3C2=O)ccc1C(F)(F)F [compound 8] | 5.89e-09 | 105 |  |  |  | 5 |  | 5
COc1cc(-c2cnn3c2C(=O)N(c2ccc(C(F)(F)F)cc2)C[C@@H]3C)ccn1 [compound 45, (7S)-3-(2-Methoxy-4-pyridyl)-7-methyl-5-[4-(trifluoromethyl)phenyl]-6,7-dihydropyrazolo[1,5-a]pyrazin-4-one] |  |  |  |  |  | 0.79 |  | 1.26
